enrich.exp.med, enrich.exp.med.lin and enrich.exp.med.log2 data for one compound are collected here from PMC10176470, “Engaging a Non-catalytic Cysteine Residue Drives Potent and Selective Inhibition of Caspase-6” (Journal of the American Chemical Society, 2023).

Read-outs that look alike come from different tables or passages of the source.

What all share (format): cell-based
In assay [1] the target is T1, proteins of HEK293T cells transiently overexpressing caspase-6 (Homo sapiens, UniProt P78417).
T1 sequence (P78417 1-241): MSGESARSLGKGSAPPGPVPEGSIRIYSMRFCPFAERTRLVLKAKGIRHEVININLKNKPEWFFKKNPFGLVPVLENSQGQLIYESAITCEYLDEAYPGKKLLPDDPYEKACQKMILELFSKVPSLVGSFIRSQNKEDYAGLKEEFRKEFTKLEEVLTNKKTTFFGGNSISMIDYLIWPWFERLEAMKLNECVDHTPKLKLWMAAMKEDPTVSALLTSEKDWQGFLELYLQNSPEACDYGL
To be noted: protein GSTO1 (P78417).

Assay [2] addresses T2, proteins of HEK293T cells transiently overexpressing caspase-6 (Homo sapiens, UniProt Q15942).
T2 sequence (Q15942 1-572): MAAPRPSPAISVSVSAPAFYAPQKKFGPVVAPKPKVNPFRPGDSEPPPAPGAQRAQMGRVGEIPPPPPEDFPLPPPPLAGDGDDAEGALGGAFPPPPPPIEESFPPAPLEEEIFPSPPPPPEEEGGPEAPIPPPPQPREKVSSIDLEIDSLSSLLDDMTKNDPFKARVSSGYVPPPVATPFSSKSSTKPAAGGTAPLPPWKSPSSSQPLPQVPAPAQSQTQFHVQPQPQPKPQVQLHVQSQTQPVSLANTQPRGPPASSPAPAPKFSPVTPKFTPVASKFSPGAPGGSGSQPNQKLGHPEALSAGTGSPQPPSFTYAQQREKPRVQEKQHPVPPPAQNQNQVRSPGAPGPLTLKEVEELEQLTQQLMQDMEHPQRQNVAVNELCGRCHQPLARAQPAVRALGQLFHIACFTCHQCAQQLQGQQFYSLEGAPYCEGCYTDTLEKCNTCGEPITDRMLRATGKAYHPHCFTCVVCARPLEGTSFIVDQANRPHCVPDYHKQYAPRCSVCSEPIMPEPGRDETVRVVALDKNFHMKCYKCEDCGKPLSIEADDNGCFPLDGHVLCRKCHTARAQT

Assay [3] addresses proteins of HEK293T cells transiently overexpressing caspase-6 (Homo sapiens, UniProt Q99460). The settings on record: protein PSMD1 (Q99460); exp_ref Probe; analysis C6.
Assay [4] deals with proteins of HEK293T cells transiently overexpressing caspase-6 (Homo sapiens, UniProt P62241). To be noted: exp_ref Probe; protein RPS8 (P62241); analysis C6.
The target in assay [5] is T3, proteins of HEK293T cells transiently overexpressing caspase-6 (Homo sapiens, UniProt P40926).
T3 sequence (P40926 25-338): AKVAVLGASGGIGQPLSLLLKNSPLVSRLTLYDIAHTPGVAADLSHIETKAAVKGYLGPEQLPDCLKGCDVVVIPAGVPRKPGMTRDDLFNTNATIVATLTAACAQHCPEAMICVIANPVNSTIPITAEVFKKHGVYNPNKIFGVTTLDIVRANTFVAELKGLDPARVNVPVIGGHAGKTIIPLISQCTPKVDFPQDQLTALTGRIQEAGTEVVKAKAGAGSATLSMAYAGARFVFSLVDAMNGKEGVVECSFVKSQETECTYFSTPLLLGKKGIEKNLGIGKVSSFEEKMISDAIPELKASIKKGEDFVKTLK
To be noted: protein MDH2 (P40926).

In assay [6] the target is proteins of HEK293T cells transiently overexpressing caspase-6 (Homo sapiens, UniProt P62888). The settings on record: exp_ref Probe; protein RPL30 (P62888); analysis C6.
Assay [7] addresses proteins of HEK293T cells transiently overexpressing caspase-6 (Homo sapiens, UniProt P02786). The settings on record: protein TFRC (P02786).
Assay [8] concerns the target T4, proteins of HEK293T cells transiently overexpressing caspase-6 (Homo sapiens, UniProt Q07065).
T4 sequence (Q07065 1-602): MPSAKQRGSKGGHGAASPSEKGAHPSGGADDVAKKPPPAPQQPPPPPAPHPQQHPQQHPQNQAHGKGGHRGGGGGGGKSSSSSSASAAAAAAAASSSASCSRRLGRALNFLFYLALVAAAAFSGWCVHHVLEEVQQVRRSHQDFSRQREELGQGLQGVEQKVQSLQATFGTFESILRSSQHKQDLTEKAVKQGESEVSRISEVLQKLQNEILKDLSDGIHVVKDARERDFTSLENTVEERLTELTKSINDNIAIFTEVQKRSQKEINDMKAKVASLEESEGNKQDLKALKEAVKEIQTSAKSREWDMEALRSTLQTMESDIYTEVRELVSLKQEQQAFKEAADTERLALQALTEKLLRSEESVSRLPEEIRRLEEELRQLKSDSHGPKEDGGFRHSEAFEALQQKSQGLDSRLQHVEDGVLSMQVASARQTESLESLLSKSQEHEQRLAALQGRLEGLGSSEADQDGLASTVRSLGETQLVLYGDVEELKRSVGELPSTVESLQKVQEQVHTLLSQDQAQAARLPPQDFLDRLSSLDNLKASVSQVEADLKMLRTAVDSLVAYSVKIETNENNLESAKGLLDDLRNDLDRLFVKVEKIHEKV
The settings on record: protein CKAP4 (Q07065).

Assay [9] concerns the target proteins of HEK293T cells transiently overexpressing caspase-6 (Homo sapiens, UniProt Q9P258). To be noted: exp_ref Probe; protein RCC2 (Q9P258); analysis C6.

Sequence of proteins of HEK293T cells transiently overexpressing caspase-6 (Homo sapiens, UniProt P02786) (P02786 whole entry): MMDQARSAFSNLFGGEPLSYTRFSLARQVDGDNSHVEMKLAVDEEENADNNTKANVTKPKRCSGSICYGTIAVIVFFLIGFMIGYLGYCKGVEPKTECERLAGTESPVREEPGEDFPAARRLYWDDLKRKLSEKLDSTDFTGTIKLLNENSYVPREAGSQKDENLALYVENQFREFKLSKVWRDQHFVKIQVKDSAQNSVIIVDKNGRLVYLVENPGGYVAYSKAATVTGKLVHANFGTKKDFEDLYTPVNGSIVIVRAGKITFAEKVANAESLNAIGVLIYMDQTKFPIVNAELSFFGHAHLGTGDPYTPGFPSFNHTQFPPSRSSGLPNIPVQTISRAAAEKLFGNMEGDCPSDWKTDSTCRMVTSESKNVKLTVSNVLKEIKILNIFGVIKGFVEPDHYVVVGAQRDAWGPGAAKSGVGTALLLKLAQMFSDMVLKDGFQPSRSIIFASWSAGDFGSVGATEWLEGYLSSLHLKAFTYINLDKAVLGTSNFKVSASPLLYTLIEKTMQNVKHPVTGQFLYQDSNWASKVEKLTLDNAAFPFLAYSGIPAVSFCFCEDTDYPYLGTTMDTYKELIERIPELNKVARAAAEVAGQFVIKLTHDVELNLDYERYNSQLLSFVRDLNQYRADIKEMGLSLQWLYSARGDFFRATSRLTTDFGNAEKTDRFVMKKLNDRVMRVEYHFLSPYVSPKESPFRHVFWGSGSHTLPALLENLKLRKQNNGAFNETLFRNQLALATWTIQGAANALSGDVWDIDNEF
Sequence of proteins of HEK293T cells transiently overexpressing caspase-6 (Homo sapiens, UniProt Q99460) (Q99460 whole entry): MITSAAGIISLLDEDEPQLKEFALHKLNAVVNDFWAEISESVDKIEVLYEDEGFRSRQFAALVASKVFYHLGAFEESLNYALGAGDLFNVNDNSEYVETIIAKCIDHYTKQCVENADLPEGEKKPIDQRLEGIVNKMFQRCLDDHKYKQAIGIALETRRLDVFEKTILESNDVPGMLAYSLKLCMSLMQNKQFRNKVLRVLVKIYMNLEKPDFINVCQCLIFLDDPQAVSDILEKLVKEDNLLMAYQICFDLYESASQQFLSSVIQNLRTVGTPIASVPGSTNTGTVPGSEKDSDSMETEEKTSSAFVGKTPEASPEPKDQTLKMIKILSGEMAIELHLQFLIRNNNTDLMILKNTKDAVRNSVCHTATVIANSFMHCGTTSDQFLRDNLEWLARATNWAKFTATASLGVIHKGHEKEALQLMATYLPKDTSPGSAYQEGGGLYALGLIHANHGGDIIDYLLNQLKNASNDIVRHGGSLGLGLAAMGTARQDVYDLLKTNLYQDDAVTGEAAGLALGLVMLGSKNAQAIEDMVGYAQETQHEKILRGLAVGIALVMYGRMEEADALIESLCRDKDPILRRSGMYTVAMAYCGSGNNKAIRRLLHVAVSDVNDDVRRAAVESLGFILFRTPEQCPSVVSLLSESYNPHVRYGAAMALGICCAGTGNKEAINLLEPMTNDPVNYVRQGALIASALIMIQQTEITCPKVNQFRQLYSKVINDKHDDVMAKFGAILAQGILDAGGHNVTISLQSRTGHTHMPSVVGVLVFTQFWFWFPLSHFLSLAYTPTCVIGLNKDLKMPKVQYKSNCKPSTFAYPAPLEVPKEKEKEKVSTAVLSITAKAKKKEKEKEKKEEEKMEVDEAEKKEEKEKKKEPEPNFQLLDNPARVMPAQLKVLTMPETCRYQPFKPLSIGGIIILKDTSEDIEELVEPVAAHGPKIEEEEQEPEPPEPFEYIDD
Sequence of proteins of HEK293T cells transiently overexpressing caspase-6 (Homo sapiens, UniProt Q9P258) (Q9P258 whole entry): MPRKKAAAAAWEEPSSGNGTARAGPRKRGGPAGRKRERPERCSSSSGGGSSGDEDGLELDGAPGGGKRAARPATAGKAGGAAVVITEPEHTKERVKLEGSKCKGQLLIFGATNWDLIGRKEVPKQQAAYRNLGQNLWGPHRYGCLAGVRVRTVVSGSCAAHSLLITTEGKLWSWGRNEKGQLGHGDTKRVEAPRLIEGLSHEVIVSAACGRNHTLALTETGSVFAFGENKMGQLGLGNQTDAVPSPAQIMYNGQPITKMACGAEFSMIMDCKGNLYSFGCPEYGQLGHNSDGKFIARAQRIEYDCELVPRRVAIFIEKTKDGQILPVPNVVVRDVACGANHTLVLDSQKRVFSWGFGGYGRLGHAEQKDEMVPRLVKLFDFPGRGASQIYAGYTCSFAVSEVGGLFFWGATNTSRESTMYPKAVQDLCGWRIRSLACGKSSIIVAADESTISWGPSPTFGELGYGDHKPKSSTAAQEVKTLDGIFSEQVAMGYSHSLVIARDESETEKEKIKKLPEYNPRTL

In the case of `C#CCOc1ccc([C@@H]2C[C@@H](C(=O)Nc3ccc(OC(F)(F)F)cc3)CN(S(=O)(=O)C=C)C2)cc1` (relative stereo) [13-t], the enrich.exp.med is 0.9115 in assay [1] (exp_ref Probe, analysis C6); -1.696 in assay [2] (Probe, protein ZYX Q15942); 1.73 in assay [3]; 0.3889 in assay [4]; 0.3462 in [5] (exp_ref Probe, analysis C6); 0.3258 in [6]. For the same compound, the enrich.exp.med in assay [7] (exp_ref Probe, analysis C6) was found to be 0.8901; in assay [8] (exp_ref Probe, analysis C6), 2.313; in assay [9], 0.2232. Moreover, the enrich.exp.med.lin in assay [1] is on record as 1.881; in assay [2] (protein ZYX (Q15942)) it was 0.3087; in assay [5], 1.2712; in assay [7], 1.853; in assay [8] it was 4.971; in [8] (Expt Probe, analysis C6), 4.971. Moreover, the enrich.exp.med.log2 in assay [1] is 0.9115; in assay [2] (protein ZYX (Q15942)), -1.696; in assay [5] it was 0.3462; in assay [7], 0.8901; in assay [8], 2.313; in assay [8] (Expt Probe, analysis C6) it was 2.313.
